Measurements as given in US20250101023A1, “HETEROARYL DERIVATIVE AND USES THEREOF” (IUCF-HYU (INDUSTRY-UNIVERSITY COOPERATION FOUNDATION …, priority 2022, published 2025).

What was measured:
CDK12/CyclinK = CDK12/CyclinK (Homo sapiens (Human), UniProt Q9NYV4); test: CDK12/cyclinK enzyme activity; format: biochemical; details: in vitro
HCC1954 cells = test: Breast cancer growth inhibitory activity (Cell-titer Glo, 72 h); format: cell-based; details: Homo sapiens, 72 hours, read-out: HCC1954 (GI50/μM)
Description: (§1) Breast cancer cells in a culture solution (100 μL volume/well, 2,500 SK-Br3 cells/well, 1,000 HCC-1954 cells/well) were seeded into a tissue culture-treated 96-well plate and cultured in a cell incubator for 24 hours. […] Cell-titer Glo™ reagent (50 μL of a 5-fold diluted solution, Promega) was added to each well, and luminescence signals were measured using an Envision™ plate reader (PerkinElmer, USA). Titration curve fitting and IC50 values were generated using Prism 7.0 s/w (GraphPad, San Diego, USA).

SK-Br3 cells = test: as above; format: cell-based; details: Homo sapiens, SK-BR-3; 72 hours; read-out: SK-Br3 (GI50/μM)
Description: as §1

Sequence of CDK12/CyclinK (Q9NYV4 whole entry): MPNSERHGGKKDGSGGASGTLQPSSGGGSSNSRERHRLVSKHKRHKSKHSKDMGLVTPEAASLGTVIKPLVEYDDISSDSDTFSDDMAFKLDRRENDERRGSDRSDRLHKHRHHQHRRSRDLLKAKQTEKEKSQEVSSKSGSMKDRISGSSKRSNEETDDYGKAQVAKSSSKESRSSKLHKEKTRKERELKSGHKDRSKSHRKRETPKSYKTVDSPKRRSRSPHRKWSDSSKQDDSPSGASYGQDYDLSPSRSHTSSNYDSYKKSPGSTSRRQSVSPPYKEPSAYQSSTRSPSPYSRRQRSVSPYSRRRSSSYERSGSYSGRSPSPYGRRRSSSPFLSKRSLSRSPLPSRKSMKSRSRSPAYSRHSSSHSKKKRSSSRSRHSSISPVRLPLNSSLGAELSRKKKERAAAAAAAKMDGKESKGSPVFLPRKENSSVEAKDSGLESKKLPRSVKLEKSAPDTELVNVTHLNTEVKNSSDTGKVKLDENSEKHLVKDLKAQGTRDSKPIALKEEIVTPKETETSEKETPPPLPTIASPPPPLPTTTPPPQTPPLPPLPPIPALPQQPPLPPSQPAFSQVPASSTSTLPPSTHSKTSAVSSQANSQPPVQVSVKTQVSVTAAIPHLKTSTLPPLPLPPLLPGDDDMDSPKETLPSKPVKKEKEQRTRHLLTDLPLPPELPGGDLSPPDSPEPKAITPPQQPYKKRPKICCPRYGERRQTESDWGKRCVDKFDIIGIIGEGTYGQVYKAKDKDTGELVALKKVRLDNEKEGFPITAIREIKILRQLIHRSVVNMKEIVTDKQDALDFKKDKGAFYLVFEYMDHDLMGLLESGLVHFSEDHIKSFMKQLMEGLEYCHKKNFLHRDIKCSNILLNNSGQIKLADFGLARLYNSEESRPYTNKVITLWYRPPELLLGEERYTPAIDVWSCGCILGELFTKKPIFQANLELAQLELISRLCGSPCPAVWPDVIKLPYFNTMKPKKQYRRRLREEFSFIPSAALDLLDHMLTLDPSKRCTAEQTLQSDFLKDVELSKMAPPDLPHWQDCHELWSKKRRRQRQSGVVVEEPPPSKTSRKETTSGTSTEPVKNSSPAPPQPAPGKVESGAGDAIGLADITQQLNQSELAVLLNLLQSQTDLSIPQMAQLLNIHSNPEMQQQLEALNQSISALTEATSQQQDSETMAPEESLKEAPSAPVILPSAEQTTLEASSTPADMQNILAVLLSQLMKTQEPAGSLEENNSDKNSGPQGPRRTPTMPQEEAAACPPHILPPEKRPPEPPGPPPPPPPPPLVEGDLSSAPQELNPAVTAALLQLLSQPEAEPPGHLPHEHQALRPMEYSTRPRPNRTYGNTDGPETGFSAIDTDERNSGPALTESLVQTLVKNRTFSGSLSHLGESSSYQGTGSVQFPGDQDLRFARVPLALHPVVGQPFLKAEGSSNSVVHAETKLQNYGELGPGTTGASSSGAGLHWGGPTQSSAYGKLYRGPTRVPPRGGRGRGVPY
Sequence of CDK12/CyclinK (O75909 whole entry partner): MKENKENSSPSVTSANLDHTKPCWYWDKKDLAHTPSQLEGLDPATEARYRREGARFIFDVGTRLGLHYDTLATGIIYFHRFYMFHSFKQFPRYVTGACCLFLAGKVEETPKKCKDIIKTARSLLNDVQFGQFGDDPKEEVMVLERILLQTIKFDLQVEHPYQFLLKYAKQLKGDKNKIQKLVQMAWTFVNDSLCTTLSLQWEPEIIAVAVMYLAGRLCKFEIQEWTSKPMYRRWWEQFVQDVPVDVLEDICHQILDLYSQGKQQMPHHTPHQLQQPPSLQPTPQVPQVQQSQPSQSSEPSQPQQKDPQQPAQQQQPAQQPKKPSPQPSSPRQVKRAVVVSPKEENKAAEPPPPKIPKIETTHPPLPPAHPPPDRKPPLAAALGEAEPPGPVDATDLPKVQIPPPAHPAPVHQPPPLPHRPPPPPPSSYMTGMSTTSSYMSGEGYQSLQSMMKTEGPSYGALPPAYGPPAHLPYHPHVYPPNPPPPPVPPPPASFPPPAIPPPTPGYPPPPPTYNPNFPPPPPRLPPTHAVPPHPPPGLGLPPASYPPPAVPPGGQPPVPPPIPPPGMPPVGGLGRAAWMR

Row | IC50 (CDK12/CyclinK) | GI50 (HCC1954 cells) | GI50 (SK-Br3 cells) | Compound
1 | 0.094 µM | 0.362 µM | – | CC(C)n1cnc2c(NCc3ccc(-c4cccnc4)nc3)nc(-c3ccnc(N)c3)nc21 [Example 19, N-([2,3′-bipyridin]-5-ylmethyl)-2-(2-aminopyridin-4-yl)-9-isopropyl-9H-purin-6-amine]
2 | 0.304 µM | – | 1.18 µM | CC(C)n1cnc2c(NCc3ccc(-c4cccnc4)nc3)nc(-c3ccc(NCCCO)nc3)nc21 [Example 36, 3-((5-(6-(([2,3′-bipyridin]-5-ylmethyl)amino)-9-isopropyl-9H-purin-2-yl)pyridin-2-yl)amino)propan-1-ol]
3 | 0.179 µM | 0.4 µM | 0.597 µM | CC(C)n1cnc2c(NCc3ccc(-c4cccnc4)nc3)nc(-c3ccc4cn[nH]c4c3)nc21 [Example 13, N-([2,3′-bipyridin]-5-ylmethyl)-2-(1H-indazol-6-yl)-9-isopropyl-9H-purin-6-amine]
4 | 0.065 µM | 0.279 µM | 0.375 µM | CC(C)n1cnc2c(NCc3ccc(-c4cccnc4)nc3)nc(-c3ccc(N)nc3)nc21 [Example 18, N-([2,3′-bipyridin]-5-ylmethyl)-2-(6-aminopyridin-3-yl)-9-isopropyl-9H-purin-6-amine]
5 | 0.15 µM | – | 0.813 µM | CC(C)n1cnc2c(NCc3ccc(-c4cccnc4)nc3)nc(-c3ccc(N)cc3)nc21 [Example 27, N-([2,3′-bipyridin]-5-ylmethyl)-2-(4-aminophenyl)-9-isopropyl-9H-purin-6-amine]
6 | 0.113 µM | – | 0.479 µM | CC(C)n1cnc2c(NCc3ccc(-c4cccnc4)nc3)nc(-c3ccnc(NCCCO)c3)nc21 [Example 38, 3-((4-(6-(([2,3′-bipyridin]-5-ylmethyl)amino)-9-isopropyl-9H-purin-2-yl)pyridin-2-yl)amino)propan-1-ol]
7 | 0.501 µM | – | 1.72 µM | CC(C)n1cnc2c(NCc3ccc(-c4cccnc4)nc3)nc(-c3ccn[nH]3)nc21 [Example 22, N-([2,3′-bipyridin]-5-ylmethyl)-9-isopropyl-2-(1H-pyrazol-5-yl)-9H-purin-6-amine]
8 | 0.147 µM | 1.31 µM | 1.75 µM | CC(C)n1cnc2c(NCc3ccc(-c4cccnc4)nc3)nc(-c3ccc(F)nc3)nc21 [Example 28, N-([2,3′-bipyridin]-5-ylmethyl)-2-(6-fluoropyridin-3-yl)-9-isopropyl-9H-purin-6-amine]
9 | 0.155 µM | 1.36 µM | 1.5 µM | CC(C)n1cnc2c(NCc3ccc(-c4cccnc4)nc3)nc(-c3ccc4[nH]ccc4c3)nc21 [Example 11, N-([2,3′-bipyridin]-5-ylmethyl)-2-(1H-indol-5-yl)-9-isopropyl-9H-purin-6-amine]
10 | 0.17 µM | 0.34 µM | 0.615 µM | CC(C)n1cnc2c(NCc3ccc(-c4cccnc4)nc3)nc(-c3cccc(N)c3)nc21 [Example 26, N-([2,3′-bipyridin]-5-ylmethyl)-2-(3-aminophenyl)-9-isopropyl-9H-purin-6-amine]
11 | 0.086 µM | – | 0.47 µM | CC(C)n1cnc2c(NCc3ccc(-c4cccnc4)nc3)nc(-c3ccnc(NCCO)c3)nc21 [Example 37, 2-((4-(6-(([2,3′-bipyridin]-5-ylmethyl)amino)-9-isopropyl-9H-purin-2-yl)pyridin-2-yl)amino)ethan-1-ol]
12 | 0.164 µM | – | 1.72 µM | CC(C)n1cnc2c(NCc3ccc(-c4cccnc4)nc3)nc(-c3ccnc(F)c3)nc21 [Example 29, N-([2,3′-bipyridin]-5-ylmethyl)-2-(2-fluoropyridin-4-yl)-9-isopropyl-9H-purin-6-amine]
13 | 0.257 µM | – | 0.724 µM | CC(C)n1cnc2c(NCc3ccc(-c4cccnc4)nc3)nc(-c3cccc(NCCCO)c3)nc21 [Example 33, 3-((3-(6-(([2,3′-bipyridin]-5-ylmethyl)amino)-9-isopropyl-9H-purin-2-yl)phenyl)amino)propan-1-ol]

Continued, compound first:

Row | Compound | IC50 (CDK12/CyclinK) | GI50 (HCC1954 cells) | GI50 (SK-Br3 cells)
14 | CC(C)n1cnc2c(NCc3ccc(-c4cccnc4)nc3)nc(-c3cncnc3)nc21 [Example 20, N-([2,3′-bipyridin]-5-ylmethyl)-9-isopropyl-2-(pyrimidin-5-yl)-9H-purin-6-amine] | 0.051 µM | 0.308 µM | 0.314 µM
15 | CC(C)n1cnc2c(NCc3ccc(-c4cccnc4)nc3)nc(-n3cc(CO)nn3)nc21 [Example 41, (1-(6-(([2,3′-bipyridin]-5-ylmethyl)amino)-9-isopropyl-9H-purin-2-yl)-1H-1,2,3-triazol-4-yl)methanol] | 2.05 µM | 10 µM | 13.3 µM
16 | c1cncc(-c2ccc(CNc3nc(-c4cccnc4)nc4c3ncn4C3CCOCC3)cn2)c1 [Example 48, N-([2,3′-bipyridin]-5-ylmethyl)-2-(pyridin-3-yl)-9-(tetrahydro-2H-pyran-4-yl)-9H-purin-6-amine] | > 10 µM | 44.2 µM | –
17 | Cc1cc(N)n(-c2nc(NCc3ccc(-c4cccnc4)nc3)c3ncn(C(C)C)c3n2)n1 [Example 40, N-([2,3′-bipyridin]-5-ylmethyl)-2-(5-amino-3-methyl-1H-pyrazol-1-yl)-9-isopropyl-9H-purin-6-amine] | 2.35 µM | 3.45 µM | 5.18 µM
18 | CC(C)n1cnc2c(NCc3ccc(-c4cccnc4)nc3)nc(-c3cnc(N)nc3)nc21 [Example 21, N-([2,3′-bipyridin]-5-ylmethyl)-2-(2-aminopyrimidin-5-yl)-9-isopropyl-9H-purin-6-amine] | 0.087 µM | – | –
19 | CCn1cnc2c(NCc3ccc(-c4ccnc(C)c4)nc3)nc(-c3ccc4[nH]c(=O)[nH]c4c3)nc21 [Example 52, 5-(9-ethyl-6-(((2′-methyl-[2,4′-bipyridin]-5-yl)methyl)amino)-9H-purin-2-yl)-1,3-dihydro-2H-benzo[d]imidazol-2-one] | – | 0.635 µM | –
20 | CC(C)n1cnc2c(NCc3ccc(-c4cccnc4)nc3)nc(N3CCOC[C@H]3CCO)nc21 [Example 63, (R)-2-(4-(6-(([2,3′-bipyridin]-5-ylmethyl)amino)-9-isopropyl-9H-purin-2-yl)morpholin-3-yl)ethan-1-ol] | – | 0.168 µM | –
21 | CC(C)n1cnc2c(NCc3ccc(-c4ccccn4)cn3)nc(-c3ccc(N)nc3)nc21 [Example 45, N-([2,3′-bipyridin]-6′-ylmethyl)-2-(6-aminopyridin-3-yl)-9-isopropyl-9H-purin-6-amine] | 0.221 µM | – | 0.169 µM
22 | CC(C)n1cnc2c(NCc3ccc(-c4cccnc4)nc3)nc(-c3cn[nH]c3)nc21 [Example 23, N-([2,3′-bipyridin]-5-ylmethyl)-9-isopropyl-2-(1H-pyrazol-4-yl)-9H-purin-6-amine] | 1.43 µM | – | 1.99 µM
23 | COc1cncc(-c2nc(NCc3ccc(-c4ccccn4)cn3)c3ncn(C(C)C)c3n2)c1 [Example 44, N-([2,3′-bipyridin]-6′-ylmethyl)-9-isopropyl-2-(5-methoxypyridin-3-yl)-9H-purin-6-amine] | 1.53 µM | – | –
24 | CCn1cnc2c(NCc3ccc(-n4nc(C)cc4C)nc3)nc(-c3cnc(N)nc3)nc21 [Example 62, 2-(2-aminopyrimidin-5-yl)-N-((6-(3,5-dimethyl-1H-pyrazol-1-yl)pyridin-3-yl)methyl)-9-ethyl-9H-purin-6-amine] | – | 0.085 µM | 0.066 µM
25 | CCn1cnc2c(NCc3ccc(-c4cccnc4)nc3)nc(-c3cccnc3)nc21 [Example 46, N-([2,3′-bipyridin]-5-ylmethyl)-9-ethyl-2-(pyridin-3-yl)-9H-purin-6-amine] | 0.016 µM | – | 0.217 µM
